# From ChEMBL document CHEMBL4270586, “Novel hydrazido benzenesulfonamides-isatin conjugates: Synthesis, carbonic anhydrase inhibitory activity and molecular modeling studies” (Eur J Med Chem, 2018)
# Biological target: Carbonic anhydrase 9 (Homo sapiens, UniProt Q16790)
# Test: Inhibition of recombinant human carbonic anhydrase 9 incubated for 15 mins prior to testing by stopped flow CO2 hydration assay
row,Compound,Ki [nM]
1,COc1ccc2c(c1)C(=NNC(=O)c1ccc(S(N)(=O)=O)cc1)C(=O)N2,264
2,CCOC(=O)CN1C(=O)C(=NNC(=O)c2ccc(S(N)(=O)=O)cc2)c2ccccc21,17.7
3,CC(C)N1C(=O)C(=NNC(=O)c2ccc(S(N)(=O)=O)cc2)c2ccccc21,177
4,NS(=O)(=O)c1ccc(C(=O)NN=C2C(=O)Nc3ccc(Br)cc32)cc1,101
5,NS(=O)(=O)c1ccc(C(=O)NN=C2C(=O)Nc3ccc(Cl)cc32)cc1,31.5
6,Cc1ccc(CN2C(=O)C(=NNC(=O)c3ccc(S(N)(=O)=O)cc3)c3ccccc32)cc1,81.2
7,C=CCN1C(=O)C(=NNC(=O)c2ccc(S(N)(=O)=O)cc2)c2ccccc21,77.9
8,NS(=O)(=O)c1ccc(C(=O)NN=C2C(=O)Nc3ccc([N+](=O)[O-])cc32)cc1,23.8
9,NS(=O)(=O)c1ccc(C(=O)NN=C2C(=O)Nc3ccc(F)cc32)cc1,32.3
10,Cc1ccc2c(c1)C(=NNC(=O)c1ccc(S(N)(=O)=O)cc1)C(=O)N2,197
11,NS(=O)(=O)c1ccc(C(=O)NN=C2C(=O)N(Cc3ccccc3)c3ccccc32)cc1,25.2
12,CN1C(=O)C(=NNC(=O)c2ccc(S(N)(=O)=O)cc2)c2ccccc21,30.6
13,CCCN1C(=O)C(=NNC(=O)c2ccc(S(N)(=O)=O)cc2)c2ccccc21,30.1
14,NS(=O)(=O)c1ccc(C(=O)NN=C2C(=O)N(Cc3ccc(F)cc3)c3ccccc32)cc1,148
15,Cc1cc(C)c2c(c1)C(=NNC(=O)c1ccc(S(N)(=O)=O)cc1)C(=O)N2,716
16,NS(=O)(=O)c1ccc(C(=O)NN=C2C(=O)Nc3ccccc32)cc1,174
17,CCCCN1C(=O)C(=NNC(=O)c2ccc(S(N)(=O)=O)cc2)c2ccccc21,27.4
18,CCN1C(=O)C(=NNC(=O)c2ccc(S(N)(=O)=O)cc2)c2ccccc21,8.9
